Measurements as given in publication PMC10206040, “Identification of novel anti-amoebic pharmacophores from kinase inhibitor chemotypes” (Frontiers in Microbiology, 2023).
Read-outs that look alike come from different tables or passages of the source.

How the values were obtained:
[1] = system: Acanthamoeba castellanii T4 isolate (ATCC 50370) trophozoites; assay: CellTiter-Glo 2.0 trophocidal assay, A. castellanii; assay type: cell-based; details: Acanthamoeba castellanii, ATCC50370, 72 h, logarithmic trophozoites, 72 h, n = 3; read-out: Acanthamoeba castellanii EC50 ± SD
From the text: This isolate was purchased from American Type Culture Collection (ATCC). […] For sub-culturing, cells were mechanically harvested to detach the cells from the culture flasks.

[2] = Human fetal lung fibroblast (MRC5) cell cytotoxicity assay (resazurin); details: human
Method: (§1) Intermediate plates were made as described, adding 95 μL of DMEM complete media to 5 μL of compound per well setting a 5% DMSO amount. Log-phase MRC5 cells were removed from a T-75 TC flask using TrypLE® Express (Thermo®) and dispersed by gentle pipetting. Cell density was adjusted to working concentration in prewarmed DMEM medium: 25,000 cells in 90 μL of culture were plated in 96-well transparent Nunclon plates and allowed to settle for 24 h at 37°C and 5% CO2. […] Plates were incubated for 48 h at 37°C and 5% CO2. At 4 h prior to fluorescence measurement, 20 μL of 500 μM resazurin solution was added.
(§2) A four-parameter equation was used to fit the dose–response curves and determination of EC50 by SigmaPlot ® 13.0 software. Assays were performed in duplicate at least twice for positive compounds, to achieve a minimal […] per dose response.

[3] = system: MRC5 cells; assay: as above; details: for MRC5 TC50 ± Standard Deviation: Table S2, in µM
Method: as §1, §2

[4] = system: Balamuthia mandrillaris (CDC:V039; ATCC 50209) trophozoites; assay: CellTiter-Glo 2.0 trophocidal assay, B. mandrillaris; assay type: cell-based; details: Balamuthia mandrillaris, ATCC50209, 72 h
From the text: For sub-culturing, 0.25% Trypsin–EDTA (Gibco) cell detachment reagent was used to detach the cells from the culture flasks.

[5] = system: THP-1; assay: Cytotoxicity assay in THP-1 (MTT); assay type: cell-based; details: Table S2, 72 h, maximal concentration 50 μM
Method: Cytotoxicity assay in TH P-1. Cellular toxicity of all compounds was determined using the colorimetric MTT-based assay after incubation at 37 °C for 72 h in the presence of increasing concentrations of compounds (final maximal concentration was 50 μM in 0.5% DMSO per well) [ 1] . The results are expressed […]
cells. Assays were performed in duplicate at least twice to achieve a minimal n=3 per dose response. […]
Cytotoxicity assay in THP-1. Cellular toxicity of all compounds was determined using the colorimetric MTT-based assay after incubation at 37 °C for 72 h in the presence of increasing concentrations of compounds (final maximal concentration was 50 μM in 0.5% DMSO per well). […] Assays were performed in duplicate at least twice to achieve a minimal n=3 per dose response.

[6] = system: Naegleria fowleri (ATCC 30215) trophozoites; assay: microbe, parasite or virus in culture
Method: Trophozoites were routinely grown axenically at 34°C, 5% CO2, in Nelson’s complete medium (NCM) in non-vented 75 cm^2 tissue culture flasks (Olympus), until the cells were 80–90% confluent. For sub-culturing, cells were placed on ice to detach the cells from the culture flasks. […] Complete NCM media is prepared by the addition of 10% fetal bovine serum (FBS) and 100 U/mL penicillin, and 100 μg/mL streptomycin antibiotics.
Trophozoites were routinely cultured as described above and only logarithmic trophozoites were used.
All assays were incubated at each of the parasites’ representative growth temperatures, described above, for 72 h. At the 72-h time point, 25 μL of CellTiter-Glo 2.0 reagent was added to all wells of the 96-well plates by hand. The plates were protected from light and contents were mixed using an orbital shaker at 300 rpm at room temperature for 2 min to induce cell lysis. After shaking, the plates were equilibrated at room temperature for 10 min to stabilize the luminescent signal. The ATP luminescent signal (relative light units; RLUs) were measured […] with a SpectraMax I3X plate reader (Molecular Devices, Sunnyvale, CA, United States). […] Values reported are from a minimum of three biological replicates with standard deviation.

[7] = Rat skeletal muscle cell line (L6) cytotoxicity assay (resazurin); details: rat
Method: (§3) One hundred microliters (100 μL) per well of culture medium containing the compounds and controls were added to L6 cells previously cultured (4 × 10^3 L6 cells per well). After 72 h at 37°C the medium was exchanged, and the viable cell number was determined by resazurin (Sigma–Aldrich) reduction. 20 μl of resazurin (1.1 mg/ml) was added to each well and incubated in the dark for 2 h at 37°C.

[8] = system: L6 cells; assay: as above; details: Table S2; in µM
Method: as §3

[9] = MRC5 cells (human fetal lung fibroblasts)
[10] = logarithmic trophozoites, 72 h, n = 3, read-out: Balamuthia mandrillaris EC50 ± SD
[11] = Naegleria fowleri, ATCC30215, 72 h, read-out: Naegleria fowleri EC50 ± SD, logarithmic trophozoites, 72 h, n = 3 (converted)
[12] = L6 cells (rat skeletal muscle cell line)
[13] = Naegleria fowleri, 72 h, read-out: Naegleria fowleri EC50 ± SD, logarithmic trophozoites, 72 h, n = 3 (converted)

EC50 [6, 11] | EC50 ([6]; read-out: Naegleria fowleri EC50 ± SD, logarithmic trophozoites, 72 h, n = 3) | Compound | EC50 [1] | CC50 at 48 h [2, 9] | MRC5 TC50 ± Standard Deviation [3] | EC50 [4, 10] | THP-1 TC50 ± Standard Deviation [5] | CC50 at 72 h [7, 12] | L6 TC50 ± Standard Deviation [8] | selectivity versus MRC5 ([6]; N. fowleri EC50 versus MRC5 cells) | selectivity versus THP-1 ([6]; N. fowleri EC50 versus THP-1 cells) | activity/toxicity against MRC5 cells (in words) ([3]; up to 50 μM) | CC50 at 48 h [2] | EC50 ([4]; read-out: Balamuthia mandrillaris EC50 ± SD, logarithmic trophozoites, 72 h, n = 3 (converted)) | EC50 [6, 13] | CC50 at 72 h [7]
≤ 14 µM | 8.5 ± 0.34 µM | Nc1ccnc(-c2cc3c4c(n[nH]c4c2)Nc2ccccc2O3)n1 [Compound 1a] | 3.8 ± 0.46 µM | > 50 µM | > 50 | 17 ± 3 µM | > 50 | 32 ± 2.5 µM | 32 ± 2.5 |  |  |  |  |  |  | 
 |  | CNc1nccc(-c2cc3c4c(n[nH]c4c2)Nc2ccccc2O3)n1 [Compound 1c] | 3.3 ± 0.31 µM | > 50 µM | > 50 | 1.9 ± 1.3 µM | 5.0 ± 0.11 | 6.3 ± 0.55 µM | 6.3 ± 0.55 | > 10 fold | > 10 fold |  |  |  |  | 
 |  | N#Cc1cccc(-c2n[nH]c3ncc(-c4cnn(C5CCOCC5)c4)cc23)c1 [Compound 4a] | 11 ± 9 µM | > 50 µM | > 50 | 3.3 ± 0.62 µM | > 50 | 2.8 ± 0.92 µM | 2.8 ± 0.92 |  |  |  |  |  |  | 
 |  | Cc1c(-c2cnn(C3CCOCC3)c2)cnc2[nH]cc(-c3cccc(C#N)c3)c12 [Compound 4b] | 11 ± 2.3 µM | > 50 µM | > 50 | 1 ± 0.12 µM | > 50 | 11 ± 1.5 µM | 11 ± 1.5 |  |  | not toxic |  |  |  | 
> 20 µM |  | Cn1cc(-c2cnc3[nH]cc(-c4cncc(C#N)c4)c3c2)cn1 [Compound 4e] |  | > 50 µM | > 50 | 8.3 ± 1.3 µM | > 50 |  | > 50 |  |  |  |  |  |  | 
 |  | CN(C)Cc1ccc(-c2cc3c(-c4cnn(C)c4)ccnc3[nH]2)cc1 [Compound 5c] |  |  | 14 ± 2.4 |  | < 0.62 |  | < 0.62 |  |  |  | 11 ± 0.9 µM | 12 ± 0.09 µM | 5.6 ± 0.29 µM | < 0.62 µM
> 20 µM |  | FC1(F)CCN(c2nc(Nc3ccsc3)nc3[nH]cnc23)CC1 [Compound 6e] |  | > 50 µM | > 50 |  | > 50 | > 50 µM | > 50 |  |  |  |  |  |  | 
 |  | Cn1cc(Nc2nc(NCC(F)(F)F)c3nc[nH]c3n2)cn1 [Compound S21] | > 20 µM |  | 50 | > 20 µM | > 50 |  | 28 ± 1.4 |  |  |  |  |  | > 20 µM | 
 |  | Cn1cc(Nc2nc(N3CCOCC3)c3nc[nH]c3n2)cn1 [Compound S22] | > 20 µM |  | 19 ± 0.42 | > 20 µM | 19 ± 0.52 |  | 11 ± 1.0 |  |  |  |  |  | > 20 µM | 
 |  | Fc1ccc(Nc2nc(NCC(F)(F)F)c3nc[nH]c3n2)cc1 [Compound S23] | > 20 µM |  | > 50 | > 20 µM | > 50 |  | > 50 |  |  |  |  |  | > 20 µM | 
 |  | Cn1cc(Nc2nc(NCCCC(F)(F)F)c3nc[nH]c3n2)cn1 [Compound S24] | > 20 µM |  | 50 ± 0 | > 20 µM | > 50 |  | > 50 |  |  |  |  |  | > 20 µM | 
 |  | c1cc(-c2c[nH]c3ncc(-c4cnn(C5CCOCC5)c4)cc23)ccn1 [Compound S31] | > 20 µM |  | 7.9 ± 2.3 | > 20 µM | 5.8 ± 0.43 |  | 5.7 ± 0.49 |  |  |  |  |  | > 20 µM | 
